Where two headings read alike, the source gives them in different places.
Key:
host cell proteins (HCP) = assay: Microtiter plate chromatography of resins, host cell proteins (bound); assay type: binding, CHO
Procedure: Flowthrough from protein A chromatography (referred to as host cell proteins) was derived from the supernatant of antibody-producing CHO cell culture in serum-free medium.
(§1) Resins were assessed in packed mode by microtiter plate chromatography. For each column, approximately 30 μl of resin were transferred to a 384-well filter plate and sealed with appropriate top frits.
(§2) Columns were equilibrated with 6.7 column volumes (cv) of phosphate buffered saline (0.15 M NaCl, 20 mM sodium phosphate, pH 7.3; PBS) prior to injection. Either 3.3 cv of whole IgGs dissolved at 0.75 mg ml^−1, Fab or Fc fragments dissolved at 0.25 mg ml^−1 (all three in PBS) or host cell proteins (HCP) were injected onto columns. Antibody fragments of Bevacizumab (Fab and Fc) were prepared by cleavage of whole IgG with papain protease (3) according to the protocol of the manufacturer. […] Volumes transferred were spun through columns at 50 g for 1-2 min. During injection of samples, acceleration was reduced to 10 g and centrifugation time increased to 5-10 min. Effluent fractions were collected in 384-well plates and concentrations of protein analyzed by Bradford assay. Protein masses mi, mft and me (see below) were calculated as the product of fraction volume and measured protein concentration.
(§3) The fraction of ‘bound’ protein was calculated as the difference between the total mass of protein injected mi and the mass of protein detected in the flowthrough mft, divided by the total mass of protein injected.
(§4) the fraction of ‘bound’ protein and the ‘yield’ of protein were calculated for each resin based on data for whole IgG-antibodies. In the case of Bevacizumab fragments and host cell proteins, only the fraction of ‘bound’ protein is given. Selectivity of resins was calculated from data for Bevacizumab Whole IgG and host cell proteins. Due to limited experimental precision, selectivity was truncated beyond values of 10.

Tocilizumab = assay: Microtiter plate chromatography of resins, Tocilizumab (bound, yield); assay type: binding, humanized
Procedure: as §1, §2, §3
(§5) The ‘yield’ of protein was calculated as the mass of protein eluted me, divided by the mass of protein injected mi.
as §4

Bevacizumab [1] = assay: Microtiter plate chromatography of resins, Bevacizumab whole IgG (bound, yield, selectivity); assay type: binding, humanized; conditions: for selectivity index: fraction of bound Bevacizumab whole IgG divided by fraction of bound HCP, truncated beyond 10
Procedure: as §1, §2, §3, §5
(§6) The ‘selectivity’ of resins was calculated as the fraction of bound antibody BAb, divided by the fraction of bound host cell proteins BHCP.
as §4

Bevacizumab [2] = biological target: T1, Bevacizumab (Homo sapiens, UniProt P01857); assay: as above; assay type: binding, humanized
T1 construct: fused on or other part: humanised anti-VEGF-A VH domain N-terminal of the gamma-1 constant region (engineered, no UniProt entry)
Procedure: as §1, §2, §3, §5, §6, §4

Palivizumab = assay: Microtiter plate chromatography of resins, Palivizumab (bound, yield); assay type: binding, humanized
Procedure: as §1, §2, §3, §5, §4

[3] = tested on: human poly-IgG (h-poly-IgG); assay: Microtiter plate chromatography of resins, human poly-IgG (bound, yield); assay type: binding
Procedure: as §1, §2, §3, §5, §4

[4] = fraction of whole IgG Bevacizumab bound to resin
[5] = mass of whole IgG Bevacizumab eluted / mass injected
[6] = fraction of injected host cell proteins bound to resin
[7] = fraction of injected protein bound to resin
[8] = fraction of injected whole IgG bound to resin
[9] = mass eluted / mass injected, whole IgG

Structure (SMILES) | HCP Bound (%) (host cell proteins (HCP); host cell proteins) | Tocilizumab Bound (%) (Tocilizumab) | Tocilizumab Yield (%) (Tocilizumab) | Selectivity (Bevacizumab [1]) | Bevacizumab IgG Bound (%) (Bevacizumab [2]; [4]) | Bevacizumab IgG Yield (%) (Bevacizumab [2]; [5]) | Palivizumab Bound (%) (Palivizumab) | Palivizumab Yield (%) (Palivizumab) | h-poly-IgG Bound (%) [3] | h-poly-IgG Yield (%) [3] | other results
CCn1nc(C(=O)Nc2ccc(OC)c(C(=O)NCCCN)c2)c2ccccc21 [Ligand L38, 5-(1-Ethylindazol-3-ylcarboxamido)-2-methoxybenzoic acid (3-amino-1-propyl)amide] | 45% | 100% | 99% | 2.2 | 100% | 100% | 91% | 79% | 100% | 99% | –
NCCCNC(=O)c1cccc(C(=O)Nc2cc(-c3ccco3)[nH]n2)c1 [Ligand L21, 3-{N-[5-(2-Furyl)pyrazol-3-yl]carbamoyl}benzoic acid N′-(3-aminopropyl)amide] | 50% | 52% | 53% | 2.0 | 99% | 95% | 26% | 26% | 54% | 61% | –
COc1ccc(NC(=O)c2cn3ccsc3n2)cc1C(=O)NCCCN [Ligand L37, 5-(Imidazo[2,1-b]thiazol-6-yl)carboxamido-2-methoxybenzoic acid N-(3-aminopropyl)amide] | 29% | 99% | 95% | 3.4 | 100% | 92% | 92% | 87% | 94% | 70% | selectivity index (Bevacizumab [1]): 3.4
COc1ccc(NC(=O)c2cn3ccsc3n2)cc1C(=O)NCCOCCOCC(=O)NCCCCCCN [Ligand L78, 8-[5-(Imidazo-[2,1-b]thiazol-6-ylcarboxamido)-2-methoxyphenylcarboxamido]-3,6-dioxaoctanoic acid (6-amino-1-hexyl)amide] | – | – | – | 7.4 | – | – | – | – | – | – | HCP Bound (%) (host cell proteins (HCP); [6]): 14%; Tocilizumab Bound (%) (Tocilizumab; [7]): 94%; Tocilizumab Yield (%) (Tocilizumab; mass eluted / mass injected): 94%; Bevacizumab IgG Bound (%) (Bevacizumab [2]; [8]): 100%; Bevacizumab IgG Yield (%) (Bevacizumab [2]; [9]): 94%; Palivizumab Bound (%) (Palivizumab; [7]): 61%; Palivizumab Yield (%) (Palivizumab; mass eluted / mass injected): 61%; h-poly-IgG Bound (%) [3, 7]: 76%; h-poly-IgG Yield (%) ([3]; mass eluted / mass injected): 76%
COc1ccc(NC(=O)c2onc3ccccc23)cc1C(=O)NCCCN [Ligand L31, 5-(Benzo[c]isoxazol-3-yl)carboxamido-2-methoxybenzoic acid N-(3-aminopropyl)amide] | 23% | 100% | 98% | 4.4 | 100% | 96% | 99% | 94% | 95% | 74% | selectivity index (Bevacizumab [1]): 4.4
COc1ccc(NC(=O)c2n[nH]c3ccccc23)cc1C(=O)NCCCN [Ligand L36, 5-(Indazol-3-yl)carboxamido-2-methoxybenzoic acid N-(3-aminopropyl)amide] | 54% | 100% | 95% | 1.9 | 100% | 100% | 100% | 100% | 95% | 77% | –
COc1ccc(NC(=O)c2cc(-c3ccccc3)no2)cc1C(=O)NCCCN [Ligand L51, 2-Methoxy-5-(3-phenylisoxazol-5-ylcarboxamido)benzoic acid (3-amino-1-propyl)amide] | 30% | 95% | 93% | 3.3 | 100% | 95% | 85% | 85% | 89% | 89% | –
COc1ccc(NC(=O)c2nccc3ccccc23)cc1C(=O)NCCCN [Ligand L35, 5-(1-Isoquinolinyl)carboxamido-2-methoxybenzoic acid N-(3-aminopropyl)amide] | 51% | 100% | 92% | 2.0 | 100% | 96% | 100% | 95% | 95% | 76% | –
Cn1nc(C(=O)Nc2ccc(O)c(C(=O)NCCCN)c2)cc1-c1ccco1 [Ligand L30, 5-[5-(2-Furyl)-1-methylpyrazol-3-yl]carboxamido-2-hydroxybenzoic acid N-(3-aminopropyl)amide] | 42% | 83% | 79% | 2.4 | 100% | 93% | 68% | 66% | 74% | 53% | –
COc1ccc(NC(=O)c2nn(CCO)c3ccccc23)cc1C(=O)NCCCN [Ligand L59, 5-[1-(2-Hydroxyethyl)indazol-3-ylcarboxamido]-2-methoxybenzoic acid (3-amino-1-propyl)amide] | 32% | 89% | 89% | 3.1 | 100% | 97% | 64% | 64% | 71% | 71% | –
COc1ccc(NC(=O)c2cc(C)n(C)n2)cc1C(=O)NCCCN [Ligand L33, 5-(1,5-Dimethylpyrazol-3-yl)carboxamido-2-methoxybenzoic acid N-(3-aminopropyl)amide] | 17% | 48% | 51% | 5.8 | 99% | 83% | 33% | 31% | 51% | 39% | –
COc1ccc(NC(=O)c2cn3ccsc3n2)cc1C(=O)NCCCNC(=O)CCCCCN [Ligand L75, 5-(Imidazo[2,1-b]thiazol-6-ylcarboxamido)-2-methoxybenzoic acid [3-(6-aminohexanoylamido)-1-propyl]amide] | – | – | – | 5.7 | – | – | – | – | – | – | HCP Bound (%) (host cell proteins (HCP); [6]): 18%; Tocilizumab Bound (%) (Tocilizumab; [7]): 100%; Tocilizumab Yield (%) (Tocilizumab; mass eluted / mass injected): 98%; Bevacizumab IgG Bound (%) (Bevacizumab [2]; [8]): 100%; Bevacizumab IgG Yield (%) (Bevacizumab [2]; [9]): 97%; Palivizumab Bound (%) (Palivizumab; [7]): 91%; Palivizumab Yield (%) (Palivizumab; mass eluted / mass injected): 91%; h-poly-IgG Bound (%) [3, 7]: 90%; h-poly-IgG Yield (%) ([3]; mass eluted / mass injected): 90%
COc1ccc(NC(=O)c2nn(C)c3ncccc23)cc1C(=O)NCCCN [Ligand L44, 2-Methoxy-5-(1-methylpyrazolo[3,4-b]pyridin-3-ylcarboxamido)benzoic acid (3-amino-1-propyl)amide] | 4% | 78% | 78% | – | 100% | 100% | 56% | 56% | 73% | 73% | Selectivity (Bevacizumab [1]; fraction of bound Bevacizumab whole IgG / fraction of bound HCP, truncated beyond values of 10): 10.0
COc1ccc(NC(=O)c2c[nH]c3ccccc23)cc1C(=O)NCCCN [Ligand L26, 5-(Indol-3-yl)carboxamido-2-methoxybenzoic acid N-(3-aminopropyl)amide] | 42% | 77% | 84% | 2.4 | 100% | 94% | 58% | 59% | 75% | 74% | –

From patent publication US20130131321A1, “LIGANDS FOR ANTIBODY AND Fc-FUSION PROTEIN PURIFICATION BY AFFINITY CHROMATOGRAPHY” (GRAFFINITY PHARMACEUTICALS GMBH, priority 2010, published 2013)
